Test results reported in US9381349B2, “Apparatus for treating cerebral neurovascular disorders including headaches by neural stimulation” (priority 1997, dated 2016).
Entries after “also recorded” stand apart in the source; their conditions may differ. Where two headings read alike, the source gives them in different places.

Columns and labels:
tinnitus = assay: Inhibition of tinnitus by dorsonasal administration of ropivacaine (Example 4); format: in vivo, human; settings: patient 4-2
Text: Ropivacaine was dorsonasally administered to each of three patients using the nasal spray method or the nasal drops method described herein.

[1] = in vivo; cited from earlier work
acute migraine episodes [2] = format: in vivo, human
Text: The purpose of the experiments described in this Example was to determine the efficacy of dorsonasal administration of ropivacaine for inhibition of acute migraine episodes. Ropivacaine was dorsonasally administered to individual patients experiencing head pain, other symptoms, or both, believed to be associated with an acute migraine episode. Patients assessed head pain prior to and after ropivacaine administration.
Ropivacaine-HCl (NAROPINT™, Astra USA, Westborough, Mass.) was used as the commercially-available 0.75% (w/v) solution, and was obtained in 30 milliliter, sterile injectable vials.
Three methods were used to achieve dorsonasal delivery of ropivacaine to individual patients. Ropivacaine was administered to a first group of patients by an intranasal drip method. Ropivacaine was administered to a second group using cotton swabs, the absorbent portions of which were saturated with the ropivacaine solution. Ropivacaine was administered to patients in a third group by spraying the ropivacaine solution into each nostril, using either a squeeze-type spray bottle or a metered-dose spray bottle.
The intranasal drip method used to administer ropivacaine to the first group of patients was a based on the method described by Barre (1982, Headache 22:69-73), except that the ropivacaine solution was used in place of the solution used by Bane. Approximately 0.75 milliliter to approximately 1.0 milliliter of the ropivacaine solution was administered by way of each of the nostrils of each patient.
The cotton swab method used to administer ropivacaine to the second group of patients comprised gently inserting cotton swabs, sequentially and bilaterally, into the nostrils of patients and urging the swabs dorsally until their absorbent portions contacted portions of nasal epithelium located dorsal to the middle conchae. Each swab was left in place for approximately one minute, and was then withdrawn. Approximately 0.5 milliliter of the ropivacaine solution was delivered to each nostril using this method.
Patients in a third group were administered ropivacaine by spraying less than about 0.5 milliliter of the ropivacaine solution into each of the patient's nostrils using either a sterile squeeze bottle or a sterile metered-dose spray bottle of known design. The design and operation of each of these spray bottles are well known in the art.
Prior to administration of ropivacaine, each patient was placed in a supine position with the patient's head hyperextended approximately 45 degrees and rotated approximately 30 degrees to the right side. In this position, an imaginary line extending from the region of the nasal epithelium overlying the SPG of the patient through the patient's left nostril was approximately vertical. Ropivacaine was then administered to the left nostril of the patient as described for each of the three groups of patients. Ropivacaine was administered to each patient's right nostril after rotating the patient's head approximately 30 degrees to the left. Ropivacaine was administered to both nostrils of each patient to prevent cases of unilateral migraine from developing into contralateral migraine.
Prior to ropivacaine administration, each patient rated perceived headache pain according to a standard pain scale of the type used in the art. Patients were asked to rank the severity of pain which they were experiencing on a scale from 0 (no pain) to 10 (worst pain imaginable). This ten-point pain rating scale is analogous to, but has more gradations than, the four-point rating system used by the International Headache Society (IHS; Headache Classification Committee of the International Headache Society, 1988, Cephalalgia 8(Suppl. 7):19-28). Ropivacaine was administered to one nostril of each patient, and then to the other. The time required to administer ropivacaine to both nostrils of each patient was approximately three minutes. […]

migraine [3] = settings: lidocaine, Intranasal Spray; 10-point pain scale
headache [4] = settings: 10% (w/v) lidocaine solution sprayed through dorsonasal cannula; three patients
Protocol: The solution was administered by spraying it through a plastic cannula which had been bent to conform its shape such that the outlet of the cannula was located dorsonasally. The cannula was inserted into each nostril, and the solution was sprayed through the cannula, exiting therefrom through the outlet.

nerve structure = settings: intranasally administered; cited from earlier work
migraine [5] = settings: intranasal spray of 1-2 milliliters 4% (w/v) lidocaine; within fifteen minutes; cited from earlier work
acute migraine episodes [6] = assay: Dorsonasal administration of bupivacaine for inhibition of acute migraine episodes (Example 2); format: in vivo, human
Text: The purpose of the experiments described in this Example was to determine the efficacy of dorsonasal administration of bupivacaine for inhibition of acute migraine episodes. Bupivacaine was dorsonasally administered to individual patients experiencing head pain, other symptoms, or both, believed to be associated with an acute migraine episode. Patients assessed head pain prior to and after bupivacaine administration.
The materials and methods used in the procedures performed in this Example were substantially the same as the materials and methods described in Example 1, with the exception that the composition which was administered to the patients described in this example comprised a 0.75% (w/v) solution of bupivacaine.
The organization of and the abbreviations used in Table 6 are analogous to those used in Table 1, with the exception that “B” in the treatment column refers to bupivacaine.

muscular headache = assay: Dorsonasal administration of bupivacaine for muscular headache episodes (Example 5); format: in vivo, human; settings: for Pain intensity after administration: 0.75% bupivacaine
Text: The purpose of the experiments described in this Example was to determine the efficacy of dorsonasal administration of bupivacaine for inhibition of muscular headaches. Bupivacaine was dorsonasally administered to four individual patients experiencing head pain and other symptoms associated with a severe muscular headache episode. All of the patients had areas of sustained craniocervical muscle contraction and tenderness which was absent in all patients following headache resolution. Patients assessed head pain prior to and after bupivacaine administration. The four patients and their responses were as follows.

headache [7] = assay: Dorsonasal headache treatment using bupivacaine (Example 8); format: in vivo, human; settings: two patients
Protocol: Two different headache patients were treated by delivering about 0.25-0.75 milliliters of a 0.75% (w/v) bupivacaine solution to each nostril of the patients. The solution was administered by passing the solution along a plastic cannula having an absorbent portion affixed at the distal (i.e., outlet) portion thereof. This cannula had also been bent to conform its shape such that the outlet of the cannula and the affixed absorbent portion were located dorsonasally. The solution was passed along the cannula, and the cannula was left in place for several minutes.

[8] = n-heptane/buffer biphasic system; cited from earlier work
[9] = cited from earlier work
[10] = lidocaine 2.0% (w/v), 1 cc Drops, individual patients, pain scale 0-10
[11] = bupivacaine 0.75% (w/v), 2 Sprays, individual patients, pain scale 0-10
[12] = bupivacaine 0.75% (w/v), 2 cc Drops, individual patient, pain scale 0-10

Oc1ccc2c(c1)[C@@]13CCCC[C@@]1(O)[C@@H](C2)N(CC1CCC1)CC3 [butorphanol]
Effect of intranasal butorphanol on chronic non-headache pain following intranasal ropivacaine (tinnitus): faster onset and a far more powerful effect

CCCN1CCCC[C@@H]1C(=O)Nc1c(C)cccc1C (single isomer, unassigned) [R(dextro) enantiomer of ropivacaine]
Cardiotoxicity [1]: Cardiotoxicity is a side effect

CCN(CC)CC(=O)Nc1c(C)cccc1C [Lidocaine, lidocaine]
Oropharyngeal numbness (acute migraine episodes [2]; human, in vivo, 15 min): 6 | Pain 5 min post-treatment (acute migraine episodes [2]; [10]): Pain 5 min post-treatment: 2 | Pain 30 min post-treatment (acute migraine episodes [2]; [10]): Pain 30 min post-treatment: 6 | Pain 45 min post-treatment (acute migraine episodes [2]; [10]): Pain 45 min post-treatment: 6^B | Rate of Pain Relief (migraine pain reduction per minute per gram of drug) (migraine [3]): 10.0 | Relief from headache symptoms (headache [4]): All three patients experienced rapid relief | Duration of action (nerve structure): shorter than about one hour | Patients with decreased head pain / effectiveness to reduce migraine pain (migraine [5]): 55%

CCCCN1CCCCC1C(=O)Nc1c(C)cccc1C (stereo not shown) [Bupivacaine, bupivacaine]
Pain 5 min post-treatment (acute migraine episodes [6]; bupivacaine 0.75% (w/v), 2 Sprays, individual patients (first or 2nd treatment), pain scale 0-10, listed as B): Pain 5 min post-2nd-treatment: 0 | Rebound / recurrence at follow-up (acute migraine episodes [6]; bupivacaine 0.75% (w/v), 2 Sprays, individual patients, listed as B): Recurrence 4 hours post-treatmt; also recorded: No rebound up to 24 hours | Pain 3 min post-treatment (acute migraine episodes [6]; [11]): Pain 3 min post-treatment: 0 | Pain 10 min post-treatment (acute migraine episodes [6]; [11]): Pain 10 min post-treatment: 0 | Associated symptom after treatment (acute migraine episodes [6]; bupivacaine 0.75% (w/v), 2 cc Drops, P2#3): Head pressure persisted | Pain 5 min post-treatment (acute migraine episodes [6]; [12]): Pain 5 min post-treatment: 1-2 | Pain 10 min post-treatment (acute migraine episodes [6]; [12]): Pain 10 min post-treatment: 0 | Rebound at follow-up (acute migraine episodes [6]; bupivacaine 0.75% (w/v), 2 cc Drops, individual patients): No rebound up to 24 hours | Rebound at follow-up (acute migraine episodes [6]; bupivacaine 0.75% (w/v), Sat'd Cotton Swab, individual patient): No rebound up to 24 hours | Pain 5 min post-treatment (acute migraine episodes [6]; bupivacaine 0.75% (w/v), Sat'd Cotton Swab, individual patient, pain scale 0-10): Pain 5 min post-treatment: 0 | Time to arrest of migraine (acute migraine episodes [6]; bupivacaine 0.75% (w/v), all seven patients): ≤ 10 min | Rebound of migraine within twenty-four hours of treatment (acute migraine episodes [6]; bupivacaine 0.75% (w/v), seven patients): Six of the seven patients treated using bupivacaine experienced no rebound | Efficacy for relief of headache pain associated with migraine (acute migraine episodes [6]; preliminary data): efficacy similar to that of ropivacaine | Pain intensity after administration (muscular headache; Patient 1, from about 8, within about 15 minutes, tension headache): 0 | Pain intensity after administration (muscular headache; Patient 2, from about 7, within about 7 minutes, muscle contraction headache): 0 | Muscle knots after treatment (muscular headache; Patient 4, 5 minutes after treatment): muscle knots were no longer perceived | Pain intensity after administration (muscular headache; Patients 3 (from about 5) and 4 (from about 7), within about 5 minutes, tension headache): about 1 | Relief from headache symptoms (headache [7]; 0.75% (w/v) bupivacaine solution via cannula with absorbent portion): Both of these patients experienced rapid relief | Rebound of headache symptoms (headache [7]; 0.75% (w/v) bupivacaine solution, follow-up about one day): neither patient experienced rebound of headache symptoms within about one day | Partition coefficient relative to lidocaine [8]: about 10 times | Proportion bound to protein in vivo [9]: Approximately 95%
